# No end group written: not given here.
# What was measured:
# normal kidney cells = assay: XTT assay on normal kidney cells; format: cell-based; details: kidney cells 5×10^4 cells/well
# Experimental: (§1) FIGS. 10A-10C are vertical bar graphs showing the specificity of adropin inhibition on proliferating cancer cells. No detectable effect of adropin treatment was observed (using XTT assay) on normal (A) fibroblasts (1×10^4 HF cells/well), (B) kidney cells (5×10^4 cells/well), and (C) hepatocytes (5×10^4 HepRG cells/well) in-vitro.
# (§2) All cell lines were maintained in DMEM medium supplemented with 10% FCS, 1% Penicillin/Streptomycin and 1% L-Glutamine in 10 cm^2 plates in 5% humidified CO2 at 37° C. Twice a week cells were passaged. Detaching was done for MC-38, CT26 and normal cells by incubation with 1 ml trypsin for 2-3 min and then seeded (usually 1:10) in 10 ml DMEM supplemented medium which stopped the enzymatic process of trypsin. EL4 cells are grown in suspension, thus not requiring this stage. […] Cells were counted in a hemocytometer under a light microscope (magnification×10) immediately after the addition of Trypan blue solution (1:1 ratio). […] On the following day, the XTT reaction solution was added to the wells according to the cell proliferation kit (XTT based; Biological Industries, Israel) and the plate was read 2, 3 and 4 hours following, using a Magellan for Infinite F50 (Tecan, Switzerland) microplate reader at 450 nm. […]
# CT26 cells = assay: Direct cell count, CT26 cells; format: cell-based
# [1] = system: MC-38 (colorectal cancer cell line); assay: XTT cell-proliferation test, MC-38 cells; format: cell-based, murine
# Experimental: (§3) All cell lines were maintained in DMEM medium supplemented with 10% FCS, 1% Penicillin/Streptomycin and 1% L-Glutamine in 10 cm^2 plates in 5% humidified CO2 at 37° C. Twice a week cells were passaged. Detaching was done for MC-38, CT26 and normal cells by incubation with 1 ml trypsin for 2-3 min and then seeded (usually 1:10) in 10 ml DMEM supplemented medium which stopped the enzymatic process of trypsin. EL4 cells are grown in suspension, thus not requiring this stage. For the experiments, after the trypsin detachment, 1 ml of cells was transferred into 13 ml medium and then the cells were centrifuged (1,400 rpm, 10 min, room temperature (RT)) and resuspended in 1 ml of fresh medium (for in vitro experiments) or sterile PBS×l (for mouse injections in vivo). Cells were counted in a hemocytometer under a light microscope (magnification×10) immediately after the addition of Trypan blue solution (1:1 ratio). Non-stained cells were considered viable. For in-vivo mouse injections, the cells were diluted in sterile PBS xl to a final concentration of 5×10^4 for MC-38 cells or 5×10^5 for EL-4 cells per 100 μl. For XTT in vitro experiments, the cells were seeded in a 96-well plate (100 μl per well) in the morning and in the afternoon (once the cells adhered) the medium was changed according to the treatment (DMEM, Adropin 25 ng/ml, Adropin 50 ng/ml or Adropin 100 ng/ml). On the following day, the XTT reaction solution was added to the wells according to the cell proliferation kit (XTT based; Biological Industries, Israel) and the plate was read 2, 3 and 4 hours following, using a Magellan for Infinite F50 (Tecan, Switzerland) microplate reader at 450 nm.
# To test adropin's direct effects on MC-38 cells, XTT cell-proliferation tests were performed with adropin added to the medium at different concentrations (25-100 ng/ml).
# MC38 cells = assay: Direct cell count, MC38 cells; format: cell-based, murine; details: all tested seeding concentrations, up to 5×10^4 cells/well; compared with XTT
# Experimental: as §3, with “For in-vivo mouse injections, the cells were diluted in sterile PBS xl to a final concentration of 5×10^4 for MC-38 cells or 5×10^5 for EL-4 cells per 100 μl. For XTT in vitro experiments, the cells were seeded in a 96-well plate (100 μl per well) in the morning and in the afternoon (once the cells adhered) the medium was changed according to the treatment (DMEM, Adropin 25 ng/ml, Adropin 50 ng/ml or Adropin 100 ng/ml).” left out, “nm. […]” for “nm.”
# [2] = Adropin stability during incubation with mouse serum (LC-MS); format: in vitro ADME; details: 24 hours incubation with mouse serum; read-out: adropin level remaining
# Experimental: FIG. 11 is a graph showing adropin dynamic stability during incubation with mouse serum as measured with liquid chromatography mass spectrometry (LC-MS).
# The next step was to assess the stability of adropin during incubation with human or mouse serum.
# hepatic adropin protein = assay: Hepatic adropin protein levels after single adropin injection; format: in vivo, mouse; details: C57BL/6 mice, single i.p. injection, different doses; lasting for two days
# Experimental: FIGS. 12A-12B are vertical bar graphs showing the effect of single adropin polypeptide injection on endogenous hepatic adropin RNA (A) and (B) protein levels at the indicated doses and timing following i.p. injection (n represents number of mice per group).
# Adropin levels were determined using the ELISA Kit (Cloud-Clone Corp., Texas, USA) for liver or serum mice samples according to the manufacturer's protocol. The results were analyzed using Magellan for Infinite F50 (Tecan, Switzerland).
# (§4) C57BL/6 mice were given a single injection of adropin at different concentrations and sacrificed at varied times afterward. […] The lower concentration induced higher effect.
# [3] = Adropin stability under storage conditions by LC-MS; format: physicochemical
# Description: The inventors then examined the stability of adropin in vitro. For that, the inventors had set up a liquid chromatography mass spectrometry (LC-MS) assay and used it to examine the stability of adropin under different storage conditions (see Table 1). […] Contrary, approximately 50% degradation were observed when the dissolved peptide was stored at a room temperature for one month.
# [4] = system: CT26 colorectal cancer cell line; assay: XTT metabolic assay, CT26 cells; format: cell-based; details: CT26 seeded 5×10^3 cells/well
# Experimental: FIGS. 9A-9D are vertical bar graphs showing the inhibitory effect of adropin on colorectal cancer cells.
# as §3, with “For in-vivo mouse injections, the cells were diluted in sterile PBS xl to a final concentration of 5×10^4 for MC-38 cells or 5×10^5 for EL-4 cells per 100 μl. For XTT in vitro experiments, the cells were seeded in a 96-well plate (100 μl per well) in the morning and in the afternoon (once the cells adhered) the medium was changed according to the treatment (DMEM, Adropin 25 ng/ml, Adropin 50 ng/ml or Adropin 100 ng/ml).” left out
# [5] = system: normal fibroblasts (HF cells); assay: XTT assay on normal fibroblasts; format: cell-based; details: 1×10^4 HF cells/well
# Experimental: as §1, §2
# [6] = system: MC-38 colorectal liver metastases; assay: MC-38 colorectal liver metastases model (intra-splenic cell injection) with adropin injection; format: in vivo, mouse
# Experimental: Metastases model—In order to obtain metastases in the liver, a well-documented model was employed using the cancer cell lines derived from C57B1/6 mice—MC-38 or EL-4 cells. The cancer cells were injected intra-splenic into MDR2-Knockout (KO) and C57B1/6 mice at two and five months of age, and after 5 minutes the spleen was removed to prevent the development of a primary tumor in the spleen. Fourteen days later, the mice were euthanized, and their livers were removed in a similar manner to that described above.
# Adropin injection—The adropin peptide (corresponding to amino acids at positions 34-76) was purchased from ChinaPeptides Co., Ltd. with a purity of >95%. The peptide was injected to mice according to two protocols. For the first protocol, termed ‘short adropin treatment’, adropin was injected at 450 nmole/kg in saline (80 μl injected), i.p., twice daily, for the five days surrounding the MC-38 CRC cell injection. For the second protocol, termed ‘prolonged adropin treatment’, 450 nmole/kg of adropin was injected i.p. (100 μl injected) once every three days from the morning of MC-38 cell injection throughout the experiment until the mice were sacrificed fourteen days later (a total of five injections).
# Formalin-fixed paraffin-embedded tissue slides were stained with hematoxylin-eosin (H&E) staining and analyzed under a microscope using Cellsens Entry software (Olympus, Japan). The number and size of metastases larger than 4,000 μm^2 were recorded. The number of metastases was normalized relatively to the size of the liver sample analyzed.
# A synthetic peptide of adropin (34-76 aa, purity: >95%) was then used to validate the findings regarding adropin's role in protecting the liver from metastases. The peptide, or saline as control, was injected (450 nmol/kg/i.p.) to mice during the week of cancer cell injection (2 days before, day of tumor cell injection and the following two days). A significant decrease of over 2.5-fold in the metastases size was observed, in the adropin-injected mice (FIG. 4B).
# A further protocol was employed where adropin was injected every 3 days throughout the entire experiment period (14 days), starting from the morning of the cancer cell injection.
# The mice were injected every two days with adropin (0.01 or 0.05 mg/i.p. injection) or saline starting from the morning of the MC-38 cell injection until being sacrificed two weeks later.
# hepatic adropin RNA = assay: Hepatic adropin RNA levels after adropin injection (qRT-PCR); format: in vivo, mouse
# Experimental: FIG. 14 is a vertical bar graph showing the dose effects of a single adropin administration (i.p.) at the indicated doses (0 (naïve), 0.01 mg, 0.05 mg and 0.001 mg) on hepatic adropin RNA levels (measured by qRT-PCR). Each group comprised 4 mice.
# FIG. 15 is a vertical bar graph showing the efficacy of different adropin routes of administration on hepatic adropin RNA in naïve mice (measured by qRT-PCR). Adropin was injected at a dose 0.01 mg. Naïve, non-injected; IP, intraperitoneal injection; SC, subcutaneous injection; IV, intravenous injection.
# as §4
# The inventors then pursued optimization of adropin administration. With this respect, different doses of adropin were administered to mice and hepatic adropin RNA levels were quantified (FIG. 14). […] Reduction in the dose of the administered adropin led to a reduction in the administered adropin effect.
# Further, the inventors examined whether the administration route of the adropin affects the hepatic adropin mRNA levels (FIG. 15).
# [7] = system: hepatocytes (HepRG cells); assay: XTT assay on normal hepatocytes; format: cell-based; details: 5×10^4 HepRG cells/well
# Experimental: as §1, §2
# [8] = adropin 450 nmol/kg i.p., short treatment, vs saline
# [9] = adropin 0.01 or 0.05 mg/i.p. injection every two days for two weeks, C57BL/6 mice
# [10] = prolonged adropin treatment, 450 nmol/kg i.p. every 3 days for 14 days
sequence,measurement,setting,value
CHSRSADVDSLSESSPNSSPGPCPEKAPPPQKPSHEGSYLLQP (cysteines drawn unpaired) [adropin],effect of adropin treatment on normal cells (XTT),normal kidney cells,No detectable effects
same,inhibition by direct cell counts,CT26 cells,same trends of inhibition
same,"inhibition of proliferation (XTT metabolic assay, FIG. 9A)",[1]; MC38 seeded 5×10^3 cells/well,significant inhibition
same,reduction in cell number (XTT),"[1]; adropin 100 ng/ml, seeded 1×10^3 cells/well",significant reduction in cell number
same,reduction in cell number (XTT),"[1]; adropin 100 ng/ml, seeded 5×10^3 cells/well",significant reduction in cell number
same,proliferation levels (XTT),[1]; adropin 25-100 ng/ml in medium,decrease in the proliferation levels of the colorectal cancer cells in a dose dependent manner
same,reduction in cell number (XTT),"[1]; adropin 25 or 100 ng/ml, seeded 5×10^4 cells/well",No significant reduction
same,inhibitory effect on the number of cells (direct cell count),MC38 cells,even higher inhibitory effect
same,remaining at 24 h,[2],55%
same,hepatic adropin protein levels,hepatic adropin protein,large increase
same,Concentration obtained by LC-MS,[3]; 4° C. for 1 month,84 ng/mL
same,Concentration obtained by LC-MS,[3]; Freeze/Thaw cycle × 3 (−20° C. to RT once a week),92 ng/mL
same,Concentration obtained by LC-MS,[3]; Room temperature (RT) for 1 month,55 ng/mL
same,degradation of dissolved peptide,[3]; room temperature for one month,approximately 50%
same,Concentration obtained by LC-MS,[3]; −20° C. for 1 month,95 ng/mL
same,stability dissolved in saline,"[3]; −20° C. or −80° C., up to one month",highly stable
same,Concentration obtained by LC-MS,[3]; −80° C. and then 4° C. for 1 week,99 ng/mL
same,Concentration obtained by LC-MS,[3]; −80° C. and then RT for 1 week,94 ng/mL
same,Concentration obtained by LC-MS,[3]; −80° C. and then −20° C. for 1 week,100 ng/mL
same,Concentration obtained by LC-MS,[3]; −80° C. for 1 month,95 ng/mL
same,"inhibition of proliferation (XTT metabolic assay, FIG. 9C)",[4],significant inhibition
same,effect of adropin treatment on normal cells (XTT),[5],No detectable effects
same,BrdU levels in the hepatic parenchyma,[6]; [8],no differences
same,number of BrdU stained cells in the tumors,[6]; [8],decrease in the number of BrdU stained cells
same,number of hepatic metastases,[6]; [9],significantly improved effects
same,size of hepatic metastases,[6]; [9],significantly improved effects
same,number of liver metastases,[6]; [10],reduced upon adropin injections (marginally significant)
same,size of liver metastases,[6]; [10],reduced upon adropin injections (marginally significant)
same,decrease in the metastases size,"[6]; short adropin treatment, 450 nmol/kg i.p., 2 days before, day of and two days after MC-38 cell injection, vs saline",over 2.5 fold
same,hepatic adropin RNA levels,"hepatic adropin RNA; C57BL/6 mice, single i.p. injection, different doses, lasting for two days",large increase
same,hepatic adropin mRNA levels,"hepatic adropin RNA; intraperitoneal injection, 0.01 mg, naïve mice",greatest increase
same,hepatic adropin mRNA levels,"hepatic adropin RNA; intravenous injection, 0.01 mg, naïve mice",substantial increase
same,hepatic adropin mRNA levels,hepatic adropin RNA; single i.p. dose of 0.001 mg,did not induce such an effect
same,hepatic adropin mRNA levels,hepatic adropin RNA; single i.p. dose of 0.005 mg,some increase
same,hepatic adropin mRNA levels,hepatic adropin RNA; single i.p. dose of 0.01 mg,substantially increase
same,hepatic adropin mRNA levels,"hepatic adropin RNA; subcutaneous injection, 0.01 mg, naïve mice",did not seem to increase
same,effect of adropin treatment on normal cells (XTT),[7],No detectable effects

# Reference: patent publication US11246912B2, “Methods for treating and diagnosing metastatic liver cancer” (HADASIT MEDICAL RESEARCH SERVICES AND DEVELOPMENT LTD., priority 2017, dated 2022)
